# Experimental data published in patent US7745483B2, “2-Halofuryl-thienyl-3-carboxamides” (Bayer CropScience AG, priority 2004, dated 2010).
# Assays:
# Format in all cases: in vivo
# Venturia inaequalis = assay: Venturia test (apple)/protective; details: 240 h, protective, application rate 100 g/ha, evaluation 10 days after inoculation, read-out: Efficacy in %
# Description: (§1) [table] To produce a suitable preparation of active compound, one part by weight of active compound is mixed with the stated amount of solvent and emulsifier, and the concentrate is diluted with water to the desired concentration. To test for protective activity, young plants are sprayed with the preparation of active compound at the stated application rate. After the spray coating has dried on, the plants are inoculated with an aqueous conidia suspension of the apple scab pathogen Venturia inaequalis and then remain in an incubation cabin at about 20° C. and 100% relative atmospheric humidity for 1 day. The plants are then placed in a greenhouse at about 21° C. and a relative atmospheric humidity of about 90%. Evaluation is carried out 10 days after the inoculation. 0% means an efficacy which corresponds to that of the control, whereas an efficacy of 100% means that no infection is observed.
# Puccinia recondita = assay: Puccinia test (wheat)/protective; details: 240 h, protective, application rate 500 g/ha, evaluation 10 days after inoculation, read-out: Efficacy in %
# Description: [table] To produce a suitable preparation of active compound, 1 part by weight of active compound is mixed with the stated amounts of solvent and emulsifier, and the concentrate is diluted with water to the desired concentration. To test for protective activity, young plants are sprayed with the preparation of active compound at the stated application rate. After the spray coating has dried on, the plants are sprayed with a conidia suspension Puccinia recondita. The plants remain in an incubation cabin at 20° C. and 100% relative atmospheric humidity for 48 hours. The plants are then placed in a greenhouse at a temperature of about 20° C. and a relative atmospheric humidity of 80% to promote the development of rust pustules. Evaluation is carried out 10 days after the inoculation. 0% means an efficacy which corresponds to that of the control, whereas an efficacy of 100% means that no infection is observed.
# Sphaerotheca fuliginea = assay: Sphaerotheca test (cucumber)/protective; details: Podosphaera fuliginea, 168 h, protective, application rate 100 g/ha, evaluation 7 days after inoculation, read-out: Efficacy in %
# Description: as §1, with “stated amounts” for “stated amount”, “aqueous spore” for “aqueous conidia”, “of Sphaerotheca fuliginea.” for “of the apple scab pathogen Venturia inaequalis and then remain in an incubation cabin at about 20° C. and 100% relative atmospheric humidity for 1 day.”, “about 23°” for “about 21°”, “about 70%.” for “about 90%.”, “out 7” for “out 10”
Structure (SMILES),pest or weed control at 100 g/ha (Venturia inaequalis),pest or weed control at 100 g/ha (Sphaerotheca fuliginea),other results
O=C(Nc1ccc(F)cc1-c1ccc(Cl)c(Cl)c1)c1ccsc1I [drawing 209],100%,–,–
CC(C)CC(C)c1ccccc1NC(=O)c1ccsc1Br (stereo not drawn) [drawing 282],–,–,pest or weed control at 500 g/ha (Puccinia recondita): 100%
CC(CC(C)(C)C)c1ccccc1NC(=O)c1ccsc1I (stereo not drawn) [drawing 154],–,100%,–
O=C(Nc1ccccc1-c1ccc(Cl)cc1)c1ccoc1I [drawing 198],100%,–,–
CC(CC(C)(C)C)c1ccccc1NC(=O)c1ccsc1I (stereo not drawn) [drawing 272],–,–,pest or weed control at 500 g/ha (Puccinia recondita): 100%
O=C(Nc1ccccc1-c1cccc(Cl)c1Cl)c1ccsc1I [drawing 160],–,100%,–
O=C(Nc1ccccc1-c1cccc(Cl)c1Cl)c1ccsc1I [drawing 194],98%,–,–
CC(C)(C)CCc1cc(F)ccc1NC(=O)c1ccsc1I [drawing 197],100%,–,–
O=C(Nc1ccccc1-c1ccc(Cl)cc1)c1ccsc1Br [drawing 180],–,100%,–
CC(C)(C)CCc1cc(F)ccc1NC(=O)c1ccsc1I [drawing 163],–,100%,–
CC(C[Si](C)(C)C)c1ccccc1NC(=O)c1ccsc1I (stereo not drawn) [drawing 207],100%,–,–
O=C(Nc1ccccc1-c1ccc(Br)c(F)c1)c1ccsc1I [drawing 158],–,100%,–
O=C(Nc1ccccc1-c1ccc(Br)c(Cl)c1)c1ccsc1I [drawing 193],100%,–,–
CC1CC(C)(C)c2cccc(NC(=O)c3ccsc3I)c21 (stereo not drawn) [drawing 211],100%,–,–
CC(C)CC(C)c1sccc1NC(=O)c1ccsc1I (stereo not drawn) [drawing 177],–,92%,–
O=C(Nc1ccncc1-c1ccc(Cl)c(Cl)c1)c1ccsc1I [drawing 156],–,100%,–
CC(CC(C)(C)C)c1ccccc1NC(=O)c1ccsc1I (stereo not drawn) [drawing 187],100%,–,–
O=C(Nc1ccccc1-c1ccc(Br)cc1Cl)c1ccsc1I [drawing 191],100%,–,–
O=C(Nc1ccc(F)cc1-c1cccc(Cl)c1F)c1ccsc1I [drawing 196],100%,–,–
CC(CC(C)(C)C)c1ccccc1NC(=O)c1ccoc1I (stereo not drawn) [drawing 269],–,–,pest or weed control at 500 g/ha (Puccinia recondita): 100%
O=C(Nc1ccccc1-c1ccc(C(F)(F)F)cc1)c1ccsc1I [drawing 208],99%,–,–
O=C(Nc1ccccc1-c1ccc(Cl)cc1)c1ccoc1I [drawing 164],–,100%,–
CC(C)(C)CCc1cc(F)ccc1NC(=O)c1ccsc1I [drawing 266],–,–,pest or weed control at 500 g/ha (Puccinia recondita): 100%
O=C(Nc1ccccc1-c1ccc(Br)cc1)c1ccoc1I [drawing 199],100%,–,–
CC(C[Si](C)(C)C)c1ccccc1NC(=O)c1ccoc1I (stereo not drawn) [drawing 171],–,100%,–

Structure (SMILES),pest or weed control at 100 g/ha (Venturia inaequalis),pest or weed control at 100 g/ha (Sphaerotheca fuliginea),other results
CO/N=C/c1ccc(-c2ccccc2NC(=O)c2ccsc2I)cc1F [drawing 176],–,98%,–
O=C(Nc1ccncc1-c1ccc(Cl)c(Cl)c1)c1ccsc1I [drawing 190],98%,–,–
O=C(Nc1ccccc1-c1ccc(Cl)cc1)c1ccoc1I [drawing 267],–,–,pest or weed control at 500 g/ha (Puccinia recondita): 100%
Cc1ccc(-c2ccccc2NC(=O)c2ccsc2I)cc1F [drawing 210],100%,–,–
O=C(Nc1ccccc1-c1ccc(C(F)(F)F)cc1Cl)c1ccsc1I [drawing 189],97%,–,–
O=C(Nc1ccccc1-c1ccc(Cl)c(F)c1)c1ccoc1I [drawing 201],100%,–,–
O=C(Nc1ccccc1-c1ccc(F)c(Cl)c1)c1ccsc1I [drawing 220],100%,–,–
CC(C)CC(C)c1ccccc1NC(=O)c1ccsc1I (stereo not drawn) [drawing 185],100%,–,–
CC(C)CC(C)c1ccccc1NC(=O)c1ccsc1Br (stereo not drawn) [drawing 178],–,100%,–
CC(C)CC(C)c1cc(F)ccc1NC(=O)c1ccsc1I (stereo not drawn) [drawing 212],100%,–,–
O=C(Nc1ccccc1-c1ccc(Br)cc1)c1ccsc1I [drawing 169],–,100%,–
O=C(Nc1ccccc1-c1ccc(Cl)c(Cl)c1)c1ccsc1Br [drawing 181],–,100%,–
C[Si](C)(C)CCc1ccccc1NC(=O)c1ccsc1I [drawing 188],100%,–,–
O=C(Nc1ccccc1-c1ccc(Br)cc1)c1ccsc1I [drawing 203],91%,–,–
O=C(Nc1ccccc1-c1ccc(Br)c(F)c1)c1ccsc1I [drawing 192],100%,–,–
O=C(Nc1ccccc1-c1ccc(Cl)c(Cl)c1)c1ccoc1I [drawing 200],99%,–,–
O=C(Nc1ccccc1-c1ccc(Cl)cc1)c1ccsc1I [drawing 168],–,95%,–
O=C(Nc1ccccc1-c1ccc(F)c(Cl)c1)c1ccsc1I [drawing 183],–,100%,–
C[Si](C)(C)CCc1sccc1NC(=O)c1ccsc1I [drawing 221],100%,–,–
O=C(Nc1ccccc1-c1ccc(Cl)c(F)c1)c1ccsc1Br [drawing 182],–,100%,–
CC(C)CC(C)c1sccc1NC(=O)c1ccsc1I (stereo not drawn) [drawing 214],100%,–,–
O=C(Nc1ccccc1-c1ccc(Cl)c(Cl)c1)c1ccoc1I [drawing 166],–,100%,–
CC(C)CC(C)c1cc(F)ccc1NC(=O)c1ccsc1I (stereo not drawn) [drawing 175],–,97%,–
O=C(Nc1ccccc1-c1ccc(C(F)(F)F)cc1)c1ccsc1I [drawing 172],–,93%,–
CC(C[Si](C)(C)C)c1ccccc1NC(=O)c1ccoc1I (stereo not drawn) [drawing 206],99%,–,–

Structure (SMILES),pest or weed control at 100 g/ha (Venturia inaequalis),pest or weed control at 100 g/ha (Sphaerotheca fuliginea),other results
O=C(Nc1ccccc1-c1ccc(C(F)(F)F)cc1Cl)c1ccsc1I [drawing 155],–,100%,–
C[Si](C)(C)CCc1sccc1NC(=O)c1ccsc1I [drawing 184],–,100%,–
O=C(Nc1ccccc1-c1ccc(Cl)c(Cl)c1)c1ccsc1I [drawing 204],100%,–,–
O=C(Nc1ccccc1-c1ccc(Br)cc1)c1ccoc1I [drawing 165],–,100%,–
CC(C)CC(C)c1ccccc1NC(=O)c1ccsc1Br (stereo not drawn) [drawing 215],100%,–,–
O=C(Nc1ccccc1-c1ccc(Cl)cc1)c1ccsc1Br [drawing 217],100%,–,–
Cc1ccc(-c2ccccc2NC(=O)c2ccsc2I)cc1F [drawing 174],–,100%,–
O=C(Nc1ccccc1-c1ccc(Br)cc1Cl)c1ccsc1I [drawing 157],–,100%,–
CC(CC(C)(C)C)c1ccccc1NC(=O)c1ccsc1Br (stereo not drawn) [drawing 216],98%,–,–
CC(C)CC(C)c1ccccc1NC(=O)c1ccsc1I (stereo not drawn) [drawing 152],–,98%,–
O=C(Nc1ccccc1-c1ccc(Cl)c(Cl)c1)c1ccsc1Br [drawing 218],100%,–,–
O=C(Nc1ccccc1-c1cccc(Cl)c1F)c1ccsc1I [drawing 161],–,100%,–
CC(CC(C)(C)C)c1ccccc1NC(=O)c1ccoc1I (stereo not drawn) [drawing 186],94%,–,–
O=C(Nc1ccccc1-c1ccc(Cl)c(F)c1)c1ccoc1I [drawing 167],–,98%,–
CO/N=C/c1ccc(-c2ccccc2NC(=O)c2ccsc2I)cc1F [drawing 213],100%,–,–
O=C(Nc1ccccc1-c1ccc(Br)c(Cl)c1)c1ccsc1I [drawing 159],–,100%,–
O=C(Nc1ccccc1-c1cccc(Cl)c1F)c1ccsc1I [drawing 195],89%,–,–
O=C(Nc1ccc(F)cc1-c1ccc(Cl)c(Cl)c1)c1ccsc1I [drawing 173],–,100%,–
O=C(Nc1ccccc1-c1ccc(Cl)c(F)c1)c1ccsc1Br [drawing 219],100%,–,–
CC(CC(C)(C)C)c1ccccc1NC(=O)c1ccoc1I (stereo not drawn) [drawing 153],–,98%,–
CC(CC(C)(C)C)c1ccccc1NC(=O)c1ccsc1Br (stereo not drawn) [drawing 179],–,97%,–
O=C(Nc1ccccc1-c1ccc(Cl)cc1)c1ccsc1I [drawing 202],100%,–,–
O=C(Nc1ccccc1-c1ccc(Cl)c(F)c1)c1ccsc1I [drawing 205],100%,–,–
O=C(Nc1ccc(F)cc1-c1cccc(Cl)c1F)c1ccsc1I [drawing 162],–,100%,–
O=C(Nc1ccccc1-c1ccc(Cl)c(F)c1)c1ccsc1I [drawing 170],–,98%,–
